Read-outs that look alike come from different tables or passages of the source.
Tests used:
[1] = tested on: Leptosphaeria nodorum (LEPTNO); assay: In vitro fungitoxicity of hydrazones with and without copper towards Leptosphaeria nodorum (Example 26); format: cell-based; conditions: 72 h at 25° C.; for inhibition of growth at 0.05 µg/mL: Parastagonospora nodorum, 72 h, read-out: LEPTNO % Inhn. Minus Copper Observed; for inhibition of growth at 0.05 µg/mL / LEPTNO % Inhn. Minus Copper Observed: copper-minus medium
[2] = tested on: Phytophthora infestans; format: in vivo, Phytophthora infestans on tomato; conditions: applied 24 h before inoculation, assessed 7 days after inoculation
[3] = compound 0.05 μg/mL, copper-plus medium (CuCl2.2H2O)
[4] = hydrazone 50 ppm + 50 μM CuCl2.2H2O, tomato
[5] = test compound Concn. 0.05 μg/mL
[6] = copper-plus medium (CuCl2 10 μM), test compound Concn. 0.05 μg/mL
[7] = hydrazone 50 ppm with 50 μM CuCl2.2H2O, tomato late blight

Row | Structure (SMILES) | inhibition of growth at 0.05 µg/mL ([1]; compound 0.05 μg/mL) | LEPTNO % Inhn. Plus Copper Observed [1, 3] | melting point | TLB % Control [2, 4] | LEPTNO % Inhn. Minus Copper Observed ([1]; compound 0.05 μg/mL) | inhibition of growth at 0.05 µg/mL [1, 5] | LEPTNO % Inhn. Plus Copper Observed [1, 6] | TLB % Control [2, 7]
1 | O=C(N/N=C/c1cc(Cl)ccc1O)c1ccc([N+](=O)[O-])cc1 [Example 12] | 0.5% | 97.4% | 259 to 262 °C | 94.0% |  |  |  | 
2 | Cc1ccc(C(=O)N/N=C/c2cc(Br)cc(Br)c2O)c(C)c1 [Example 32] |  | 94.4% | 192 to 194 °C | 74.6% | 0.0% |  |  | 
3 | O=C(N/N=C/c1cc(Cl)cc(Cl)c1O)c1ccc2ccccc2c1 [Example 92] | 1.9% | 98.2% | 215 to 217 °C | 71.9% |  |  |  | 
4 | Cc1ccc(C(=O)N/N=C/c2c(C(F)(F)F)ccc(Cl)c2O)cc1 [Example 448] |  |  | 216 to 218 °C |  |  | 27.1% | 97.5% | 100.0%
5 | C/C(=N\NC(=O)c1ccccc1Cl)c1cccc([N+](=O)[O-])c1O [Example 272] | 2% | 98.1% | 196 to 205 °C | 37.0% |  |  |  | 
6 | C/C(=N\NC(=O)c1ccc(C(F)(F)F)cc1)c1cc(F)cc(F)c1O [Example 581] |  |  | 287 to 291 °C |  |  | 13.6% | 98.2% | 93.0%
7 | Cc1ccc(C(=O)N/N=C/c2cccc(Cl)c2O)cc1 [Example 424] |  |  | 230 to 232 °C |  |  | 22.3% | 97.0% | 100.0%
8 | Cc1cc(C)cc(C(=O)N(/N=C/c2cc(Cl)cc(Cl)c2O)C(C)(C)C)c1 [Example 211] | 7% | 97.1% | 220 to 227 °C | 16.0% |  |  |  | 
9 | O=C(N/N=C/c1ccc(Cl)cc1O)c1ccccc1O [Example 395] |  |  | 210 to 213 °C |  |  | 8.2% | 93.9% | 76.0%
10 | O=C(N/N=C/c1cc(Cl)cc(C(F)(F)F)c1O)c1ccc([N+](=O)[O-])cc1 [Example 383] |  |  | 245 to 247 °C |  |  | 20.3% | 95.7% | 100.0%
11 | C/C(=N\NC(=O)c1ccccc1Cl)c1cccc(Cl)c1O [Example 496] |  |  | 189 to 193 °C |  |  | 0.7% | 97.8% | 94.0%
12 | O=C(N/N=C/c1cc(Cl)cc(Br)c1O)c1ccc([N+](=O)[O-])cc1 [Example 417] |  |  | 237 to 250 °C |  |  | 10.7% | 98.2% | 100.0%
13 | O=C(N/N=C/c1cc(C(F)(F)F)cc(Cl)c1O)c1ccccc1C(F)(F)F [Example 330] |  |  | 169 to 171 °C |  |  | 5.3% | 92.9% | 99.0%
14 | O=C(N/N=C/c1cc(C(F)(F)F)cc(Cl)c1O)c1cccc([N+](=O)[O-])c1 [Example 327] |  |  | 237 to 238 °C |  |  | 1.2% | 95.7% | 98.0%
15 | Cc1ccc(C(=O)N/N=C/c2cccc(C(F)(F)F)c2O)c(O)c1 [Example 352] |  |  | 248 to 253 °C |  |  | 8.8% | 98.4% | 100.0%
16 | O=C(N/N=C/c1cccc(Cl)c1O)c1ccc([N+](=O)[O-])cc1 [Example 430] |  |  | 284 to 287 °C |  |  | 16.6% | 98.2% | 100.0%

Row | Structure (SMILES) | inhibition of growth at 0.05 µg/mL ([1]; compound 0.05 μg/mL) | LEPTNO % Inhn. Plus Copper Observed [1, 3] | melting point | TLB % Control [2, 4] | LEPTNO % Inhn. Minus Copper Observed ([1]; compound 0.05 μg/mL) | inhibition of growth at 0.05 µg/mL [1, 5] | LEPTNO % Inhn. Plus Copper Observed [1, 6] | TLB % Control [2, 7]
17 | O=C(N/N=C/c1c(Cl)ccc(Cl)c1O)c1ccc([N+](=O)[O-])cc1 [Example 375] |  |  | 250 to 300 °C (dec.) |  |  | 7.2% | 98.2% | 90.0%
18 | Cc1cc(C)cc(C(=O)N/N=C/c2cc([N+](=O)[O-])cc(Br)c2O)c1 [Example 208] | 5.4% | 97.0% | 283 to 300 °C | 32.8% |  |  |  | 
19 | COc1ccc(C(=O)N/N=C(\C)c2cc(C(F)(F)F)ccc2O)cc1 [Example 534] |  |  | 228 to 231 °C |  |  | 5.1% | 95.7% | 61.0%
20 | Cc1cccc(C(=O)N/N=C/c2ccc(Cl)cc2O)c1 [Example 387] |  |  | 201 to 203 °C |  |  | 13.5% | 96.9% | 87.0%
21 | O=C(N/N=C/c1cc(C(F)(F)F)cc(C(F)(F)F)c1O)c1ccccc1C(F)(F)F [Example 341] |  |  | 210 to 214 °C |  |  | 1.2% | 88.9% | 63.0%
22 | C/C(=N\NC(=O)c1ccccc1Cl)c1ccc(Cl)cc1O [Example 255] | 3.6% | 98.2% | 183 to 184 °C | 28.0% |  |  |  | 
23 | C/C(=N\NC(=O)c1ccccc1Br)c1cc(Br)cc(Br)c1O [Example 549] |  |  | 214 to 216 °C |  |  | 0% | 97.3% | 94.0%
24 | Cc1cc(C)cc(C(=O)N/N=C/c2cc(Cl)ccc2O)c1 [Example 134] | 4.2% | 95.3% | 196 to 199 °C | 57.0% |  |  |  | 
25 | CC(C)c1ccc(C(=O)N/N=C/c2cc(Cl)cc(Cl)c2O)cc1 [Example 42] |  | 93.2% | 270 to 272 °C | 60.0% | 9.2% |  |  | 
26 | O=C(N/N=C/c1cc(C(F)(F)F)cc(Cl)c1O)c1ccc(F)cc1 [Example 324] |  |  | 200 to 202 °C |  |  | 2.3% | 96.3% | 98.0%
27 | O=C(N/N=C/c1c(F)ccc(F)c1O)c1ccccc1 [Example 244] | 0% | 96.1% | 206 to 207 °C | 62.7% |  |  |  | 
28 | O=C(N/N=C/c1cc(C(F)(F)F)cc(Cl)c1O)c1ccc([N+](=O)[O-])cc1 [Example 328] |  |  | 253 to 255 °C |  |  | 0% | 95.1% | 99.0%
29 | O=C(N/N=C/c1cc(Cl)cc(C(F)(F)F)c1O)c1ccccc1C(F)(F)F [Example 385] |  |  | 203 to 204 °C |  |  | 5.4% | 94.6% | 100.0%
30 | COc1cccc(C(=O)N/N=C/c2cc(Br)cc(Br)c2O)c1C [Example 108] | 21.3% | 97.6% | 188 to 189 °C | 50.9% |  |  |  | 
31 | O=C(N/N=C/c1cc(Cl)cc(Br)c1O)c1ccc(OC(F)(F)F)cc1 [Example 106] | 0% | 94.6% | 210 to 220 °C | 88.7% |  |  |  | 
32 | O=C(N/N=C/c1c(O)cc(Cl)cc1Cl)c1ccccc1 [Example 242] | 6.9% | 98.0% | 273 to 274 °C | 78.0% |  |  |  | 

— US20120010075A1 (priority 2009, published 2012)
